The record followed here is patent US11529344B2, “EZH2 inhibitor combination therapies” (Pfizer Inc., priority 2017, dated 2022).

In one assay the test system is DMS114 SCLC cells. The assay can be described thus: Cell growth inhibition assay for DMS114 SCLC cells. It is filed as cell-based. To be noted: Homo sapiens, DMS-114, 17-21 days of treatment, mean of 6 biological replicates, read-out: Proliferation IC50 ± SD (nM) (n). The procedure: (§1) COR-L88 (92031917) cells were purchased from ECACC. […] No. 1565565).
DMS114 SCLC cells were plated in complete cell culture medium described above (1 mL/well) in a 12-well clear, flat bottom polystyrene tissue culture plate (Falcon, Cat. 353225) at a density of 10,000 cells/well. Plates were incubated overnight for 16 hours at 37° C. and 5% CO2. Cells were then treated for 3 days with a 10-point, 3-fold serial dilution of Compound 1 starting at a high concentration of 3 μM. After 3 days, cells from each individual dose treatment were dissociated with Trypsin-EDTA (0.25%) (Gibco/Life Technologies Cat. 25200-056), resuspended in fresh medium, and counted using Vi-Cell cell counter and cell viability analyzer (Beckman Coulter, cat. 383556). […] Plates were then read in an Infinite M200 Pro microplate reader (Tecan Cat. 396235) using a fluorescence excitation wavelength of 540 nm to 570 nm (peak excitation is 570 nm) and emission at 580 nm to 610 nm (peak emission is 585 nm). IC50 values were calculated using nonlinear regression dose response curve fit in GraphPad Prism version 7.02.
The activity of Compound 1 in inhibiting cell proliferation of EZH2-WT DMS114 SCLC cells was also assessed using the cell proliferation assay for DMS114 SCLC cells described above. […]

In the next assay the test system is H841 SCLC cells. Kind of assay: Cell growth inhibition assay, H841 SCLC cells. The class given is cell-based. Conditions: NCI-H841, 504 h; H841 cell line, 21 days of treatment; read-out: inhibition of cell proliferation, mean IC50. The procedure: as §1
(§2) H841, H446 and H69 cells were plated in their recommended complete culture medium described above (1 mL/well) in triplicate 12 well plates for each cell line at a density of 100,000 cells per well. Plates were incubated overnight at 37° C. and 5% CO2. Compound 1 stock was prepared at 50 mM in DMSO and was dispensed to several single-use aliquots and stored at −20° C. To prepare the compound plate, Compound 1 was diluted to 3 mM in DMSO and then 3-fold serial dilution were made in DMSO (10 doses in total). […] On Day 21, cell morphology was observed under microscope and any morphology changes upon compound treatment were recorded. […] Cell viability was measured using according to manufacturer's instructions.
(§3) Based on the strong activity observed with Compound 1 in DMS114 cells (see example 1 above), the antiproliferative activity of Compound 1 was also tested in 3 additional SCLC cell lines, namely H841, H446 and H69 using the cell proliferation assay described above. Each cell line was treated with different concentrations of Compound 1 using a 10-point dose curve (1:3 dilution in DMSO) with 3 μM to 0.1 nM for 21 days and then assessed for cell viability. […]

In the next assay the test system is H446 SCLC cells. The assay can be described thus: Cell growth inhibition assay, H446 SCLC cells. The class given is cell-based. To be noted: Homo sapiens, NCI-H446, 504 h; H446 cell line, 21 days of treatment; read-out: inhibition of cell proliferation, mean IC50. The procedure:
as §1, §2, §3

For another assay, the system named is H69 SCLC cells. The assay can be described thus: Cell growth inhibition assay, H69 SCLC cells. It is filed as cell-based. Conditions: Homo sapiens, NCI-H69, 504 h; H69 cell line, 21 days of treatment; read-out: inhibition of cell proliferation, mean IC50. The procedure:
as §1, §2, §3

In assay [1] the test system is EZH2 (H3K27Me3 levels) in DMS114 SCLC cells containing wild-type EZH2. Kind of assay: cells. Conditions: Homo sapiens, DMS-114, 72 h, read-out: H3K27Me3 IC50 ± SD (nM) (n).
Protocol: SCLC cell line DMS114 was obtained from American Type Culture Collection (American Type Culture Collection, ATCC CRL-2066) and cultured in Waymouth's Medium MB 752/1 (Gibco/Life Technologies Cat. 11220-035), plus 10% Fetal Bovine Serum (FBS) (Gibco/Life Technologies Cat. 10082-147) and 1% Pen/Strep. […] All cells were maintained in a humidified incubator at 37° C. with 5% carbon dioxide (CO2).
Cells were plated at 1500 cells per well in 96-well black, flat, clear-bottom plates (Falcon, BD-353219). The following day, compounds were added to the wells at 3-fold dilution with a final concentration range from 3 μM to 0.1 nM, leaving some cells empty for controls: “DMSO only (1st and 2nd antibody)” and “DMSO only (2nd antibody only)”. […] After 2 hours, the secondary antibody was removed, the plates were washed again 5 times in PBST for 5 minutes each and then fluorescent signal was detected on an Odyssey LiCoR instrument (focus length 3 mm; using both 800 nm (for secondary) and 700 nm filters together (for DRAQ5). IC50 values were calculated using a four-parameter fit with GraphPad Prism version 7.02 and arithmetic mean of all biological replicates was calculated.
EZH2 inhibitor activity was determined in the cells by measurement of the relative amount of cellular H3K27Me3 levels.

Consider `COc1cc(C)[nH]c(=O)c1CN1CCc2c(Cl)cc([C@H](OC)C3COC3)c(Cl)c2C1=O` [Compound 1, 5,8-dichloro-2-[(4-methoxy-6-methyl-2-oxo-1,2-dihydro-pyridin-3-yl)methyl]-7-[(R)-methoxy(oxetan-3-yl)methyl]-3,4-dihydroisoquinolin-1(2H)-one], for which the IC50 with DMS114 SCLC cells worked out at 18.8 nM; with H841 SCLC cells it was 73.2 nM; in the assay with H446 SCLC cells, 109 nM; in the assay with H69 SCLC cells, 224 nM; in assay [1], 9.48 nM.
